Reference: ChEMBL document CHEMBL1121750, “Adenosine deaminase inhibitors. Conversion of a single chiral synthon into erythro- and threo-9-(2-hydroxy-3-nonyl)adenines” (J Med Chem, 1981)

Target: T1, Adenosine deaminase (Homo sapiens, UniProt P00813)
T1 sequence (P00813 whole entry): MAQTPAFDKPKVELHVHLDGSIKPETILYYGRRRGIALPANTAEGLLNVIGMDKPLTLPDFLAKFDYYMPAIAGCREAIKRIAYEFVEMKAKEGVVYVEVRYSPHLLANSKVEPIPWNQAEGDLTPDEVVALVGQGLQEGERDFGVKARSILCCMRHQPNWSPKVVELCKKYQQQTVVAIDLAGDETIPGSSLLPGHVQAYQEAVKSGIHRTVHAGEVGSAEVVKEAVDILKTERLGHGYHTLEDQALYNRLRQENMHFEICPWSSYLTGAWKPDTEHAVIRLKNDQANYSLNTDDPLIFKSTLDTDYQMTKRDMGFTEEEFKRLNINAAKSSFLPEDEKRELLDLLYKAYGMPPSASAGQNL
Assay: Compound was evaluated for the inhibition of adenosine deaminase

Row | Structure (SMILES) | Ki
1 | CCCCCC[C@H]([C@H](C)O)n1cnc2c(N)ncnc21 [(+)-EHNA] | 2 nM
2 | CCCCCC[C@H]([C@@H](C)O)n1cnc2c(N)ncnc21 | 122 nM
3 | CCCCCC[C@@H]([C@H](C)O)n1cnc2c(N)ncnc21 | 80 nM
4 | OC[C@H]1O[C@@H](n2cnc3c2N=CNC[C@H]3O)[C@H](O)[C@@H]1O [COFORMYCIN] | 0.1 nM
5 | CCCCCC[C@@H]([C@@H](C)O)n1cnc2c(N)ncnc21 (stereo in doubt; (-)) [EHNA] | 500 nM
6 | CCCCCC[C@@H]([C@@H](C)O)n1cnc2c(N)ncnc21 (stereo in doubt; erythro) [EHNA] | 0.4 nM
